{"source": "patent US20130053336A1", "about": "“TREATMENT OF CHLAMYDIACEAE INFECTIONS BY MEANS OF BETA-LACTAMS” (priority 2010, published 2013)", "key": {"[1]": {"tested_on": "persistent forms of Chlamydia", "assay": "Penicillin G on persistent infection induced by IFN-γ", "type": "cell-based, Chlamydia trachomatis", "method": "HeLa cells cultured in monolayers on slides were infected with serovar L2 with an IFU of 1, as described above (Verbeke, P. et al. PLoS Pathog 2:e45, 2006). Three hours after the infection, the medium was removed and replaced with culture medium containing 500 IU/ml (final concentration) recombinant human IFN-γ. The infected cells were incubated for an additional 100 hours in the presence of IFN-γ before being prepared for confocal microscopy as described below.\nHeLa cells cultured in monolayers on slides were infected with Chlamydia trachomatis serovar L2 and treated with penicillin G, as described above. Twenty hours after infection, the culture was washed and the medium replaced with medium free of penicillin G. Between 48 and 100 hpi, the cells and the culture medium were collected at various intervals and a titration test was performed according to the method of the prior art (Scidmore, M. A. Curr Protoc Microbiol Chapter 11: Unit 11A 11, 2005). To determine whether treatment with penicillin G could affect bacterial persistence, HeLa cells infected with L2 and treated with IFN-γ and penicillin G (500 IU/ml) from 48 hpi (i.e. 24 hours after treatment with IFN-γ) to 72 hpi (i.e. 48 hours after treatment with IFN-γ). The slides were then fixed and observed using an epifluorescence microscope (Leica D M, Leica, Mannheim, Germany) equipped with two sets of detection filters (Hoechst 360/40 nmBP-425 nmLP; FITC 480/40 nmBP-527/30 nmBP) and connected to a CCD camera CCC.\nThe effects of penicillin G were tested on persistent infections. Cells were infected and then treated with IFN-γat 3 hpi. Once the appearance of persistent inclusions was observed under the microscope, penicillin G was added to the infected cells cultured in the presence of IFN-γ."}, "[2]": {"tested_on": "Cells Infected with Chlamydia trachomatis serovar L2", "assay": "Cytotoxicity of β-lactams", "type": "cell-based", "conditions": "given as 0", "method": "It was first sought to verify whether other molecules of the β-lactam family could induce in vitro the same abnormal and noninfectious forms of Chlamydia trachomatis as that produced in the presence of penicillin G. Titration experiments were performed on the infectious ability of bacteria from infected cells treated with different β-lactams. Cytotoxicity and minimum bactericidal concentration (MBC) were determined for each of these molecules. It was also verified whether all of these β-lactams have bactericidal action on persistent forms of Chlamydia trachomatis produced in vitro under the effect of IFN-γ."}}, "data": [{"smiles": "CC1(C)S[C@@H]2[C@H](NC(=O)Cc3ccccc3)C(=O)N2[C@H]1C(=O)O", "note": "[Penicillin G, benzylpenicillin]", "values": [{"measurement": "inclusion growth of persistent inclusions after addition of penicillin G", "setting": "[1]; cells kept in IFN-γ", "value": "Rapid reinitiation of inclusion growth"}, {"measurement": "infectivity of bacteria released on lysis", "setting": "[1]; persistent infection", "value": "noninfectious"}, {"measurement": "time of cell lysis after start of treatment", "setting": "[1]; persistent infection, IFN-γ present", "value": 70, "unit": "h"}, {"measurement": "cathepsin D in bacterial forms of persistent infection", "setting": "[1]; twenty-four hours after addition of penicillin G", "value": "most of the abnormal bacterial forms contained cathepsin D"}, {"measurement": "Cytotox.", "setting": "[2]", "value": 0}]}]}
